How the values were obtained:
[1] = tested on: subjects with bipolar disorder during a current major depressive episode (bipolar depression); assay: Double-blind, placebo-controlled 2×2 trial in bipolar depression (MADRS, YMRS); type: in vivo, human; settings: LOCF; for Percentage of female responders: female patients; for Percentage of female responders / Percentage of responders (BMI >30): >50% reduction in MADRS; for Percentage of responders (BMI >30): subset BMI >30; for Percentage of responders: total sample, response = greater than 50% reduction in MADRS baseline to final, 6 weeks, ASA 81 mg b.i.d., minocycline 100 mg b.i.d. p.o.
Description: (§1) The above pharmaceutical compound comprising minocycline and acetylsalicylic acid was tested using a double-blind, placebo-controlled trial with a 2×2design. The study examined subjects with bipolar disorder during a current major depressive episode (“bipolar depression”). Most subjects were either partial responders to existing antidepressant and/or mood stabilizing treatments or were treatment resistant. The subjects were randomized to receive either (1) placebo-minocycline plus placebo-acetylsalicylic acid, or (2) active-minocycline (100 mg b.i.d.) plus placebo-acetylsalicylic acid, or (3) placebo-minocycline plus active-acetylsalicylic acid (81 mg b.i.d.), or (4) active-minocycline (100 mg b.i.d.) plus active-acetylsalicylic acid (81 mg b.i.d.) (FIG. 1). Clinical symptoms of depression and mania were measured using the Montgomery-Asberg Depression Rating Scale (MADRS) and the Young Mania Rating Scale (YMRS), respectively.
For the data produced below, the treatment method for administering the combination of each composition, including the active-minocycline and active-acetylsalicylic acid, entailed the following steps: administer ASA 81 mg p.o b.i.d and minocycline 100 mg p.o b.i.d. As depicted in FIG. 1, each session number (total of 7) is encircled, with the timing between sessions indicated in weeks with a 2business day window on either side of visit target date to complete the visit. Session 1(far left) is the baseline and session 7(far right) is the study end. The study duration is 6weeks.
Of the 99patients who were randomized, 87started treatment and completed a sufficient number of sessions (at least 3weeks of treatment) to be included in the last-observation carried forward analysis (LOCF) shown below. For these 87subjects, 79completed the entire study. Eight subjects dropped-out early, all from the active treatment groups—4from minocycline+ASA, 3from ASA+placebo, and one from minocycline+placebo. Since existing anti-depressant medications generally begin to exert antidepressant effects within 3weeks, in this trial, data from patients with at least 3weeks of treatment were including in the LOCF analysis.
Response to medication/placebo was defined as a greater than 50% reduction in MADRS scores between the baseline and final assessment. Table 2provides results reflecting percentage of treatment responders by group, and relative risk reduction (RRR), absolute risk reduction (ARR) and, number needed to treat (NNT) for the combination ASA/minocycline treatment.

[2] = tested on: patients with major depressive disorder; assay: Same trial, subset of patients with major depressive disorder (unipolar depression); type: in vivo, human; settings: subset with major depressive disorder (n=10)
Description: as §1
In the subset of patients with major depressive disorder (n=10), 75% responded to the combination of minocycline+ASA (3/4) compared to 50% response in the minocycline+placebo group (1/2), and 0% in the ASA+placebo group (0/3). The data document that the combination of minocycline and ASA has effectiveness for the treatment of additional forms of non-bipolar depression such as major depressive disorder and dysthymia. […]

[3] = administered orally; cited from earlier work
[4] = tested on: individuals receiving lithium treatment (bipolar symptoms); settings: cited from earlier work
[5] = administered orally; cited from earlier work; remark: listed apart in the source

Structure (SMILES)	Percentage of female responders [1] [%]	Percentage of responders (BMI >30) [1] [%]	Percentage of responders [1] [%]	percent responded (MADRS response) [2] [%]	brain to blood ratio [3]	level within brain as percent of level within blood plasma [3] [%]	effect on medication events ([4]; high-dose aspirin or other anti-inflammatory classes added to lithium treatment)	less likely to have a medication event ([4]; low-dose (≤81 to 162 mg/day) aspirin added to lithium treatment) [%]	level within cerebrospinal fluid as percent of plasma concentrations [5]
CC(=O)Oc1ccccc1C(=O)O [ASA, acetylsalicylic acid]	50	44	56	0	0.32	32	increase in medication events	17	
CN(C)c1ccc(O)c2c1C[C@H]1C[C@H]3[C@H](N(C)C)C(O)=C(C(N)=O)C(=O)[C@@]3(O)C(O)=C1C2=O [minocycline]	55	38	38	50					11-56%

Reference: patent US10213444B2, “Composition and method for treating bipolar disorder” (LAUREATE INSTITUTE FOR BRAIN RESEARCH, priority 2014, dated 2019)
